From PubChem BioAssay (NCI) come the findings set out here.

What all share (assay): NCI anticancer screen, dose series, 48 h
For assay [1], the system named is A549 NSCLC.
The test system of assay [2] is EKVX NSCLC.
For assay [3], the system named is HCT-15 colon.
In assay [4] the test system is NCI-H23 lung.
The test system of assay [5] is OVCAR-4 ovarian.
Assay [6] has as its system OVCAR-5 ovarian.
Assay [7] relates to RXF 393 renal.
Assay [8] has as its system SK-MEL-28 melanoma.
Assay [9] has as its system SNB-19 CNS.
Assay [10] deals with UACC-257 melanoma.

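How tested: cells in 96-well plates exposed to compound for 48 hours at five concentrations. GI50: concentration for 50% inhibition of growth. TGI marks complete inhibition of growth.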

With `O=C1CC[C@H](N2C(=O)c3cccc4c(Cc5ccc(CN6CCOCC6)cc5)ccc2c34)C(=O)N1`, the GI50 in assay [1] is 52.6 µM; in assay [2], 17.9 µM; in assay [3] it was 41.8 µM; in [4], 29.4 µM; in assay [5], 21.9 µM; in [6], more than 100 µM. The GI50 was 2.45 µM in assay [7], 75.1 µM in assay [8], more than 100 µM in [9] and 22.5 µM in assay [10]. In addition, the TGI in [1], in assay [2], in assay [3], in assay [4], in assay [5] and in [6] was more than 100 µM throughout. The TGI in [7], in assay [8], in assay [9] and in [10] was more than 100 µM each time.

Take `CC12OOC(c3ccccc31)c1c2ccc2ccccc12` (stereo unspecified): the TGI in assay [1] came out at 8.43 µM; in assay [2] it was 18.7 µM; in [3], 5.09 µM; in assay [4], 26.6 µM; in assay [5] it was 2.43 µM; in [6], 33.6 µM. In addition, the TGI in [7] was 7.53 µM; in [8], 27 µM; in assay [9], 30.5 µM; in [10] it was 26.8 µM.

On to `NS(=O)(=O)OCC1OC(n2cnc3cncnc32)C(O)C1O` (stereo unspecified), for which the GI50 in [1] was 0.0246 µM; in assay [2], 0.064 µM; in assay [3], 0.0283 µM; in assay [4], 0.0175 µM; in [5], 0.0103 µM; in [6], less than 0.0114 µM. Moreover, the GI50 in assay [7] was 0.0235 µM; in [8], 0.039 µM; in [9], 0.0126 µM; in assay [10] it was 0.0431 µM. Moreover, the TGI is 0.115 µM in [1]; 0.647 µM in assay [2]; 0.105 µM in assay [3]; 0.0525 µM in assay [4]; 0.0745 µM in [5]; 0.0747 µM in [6]. The TGI in [7] was 0.065 µM; in assay [8], 0.185 µM; in [9], 0.0685 µM; in [10] it was 0.244 µM.

For the compound `O=S(=O)([O-])c1ccc(N=Cc2ccccc2[O-])cc1.O=S(=O)([O-])c1ccc(N=Cc2ccccc2[O-])cc1.[O]=[U+2]=[O]`, the GI50 in [1] is more than 100 µM; in assay [2], more than 100 µM; in assay [3] it was 31.3 µM; in assay [4], more than 100 µM; in assay [5] it was more than 100 µM; in assay [6], more than 100 µM. Moreover, the GI50 is 81.7 µM in assay [7], more than 100 µM in assay [8], 66.4 µM in assay [9] and more than 100 µM in assay [10]. The TGI in assay [1], in assay [2], in [3], in assay [4], in [5] and in assay [6] was more than 100 µM each time. Further, the TGI in assay [7], in assay [8], in assay [9] and in assay [10] was more than 100 µM throughout.

In the case of `CCN(CC)CCNc1ccc(C)c2sc3cc(Cl)ccc3c(=O)c12`, the GI50 in assay [1] is 1.76 µM; in assay [2], 1.47 µM; in assay [3], 1.5 µM; in assay [4], 1.7 µM; in assay [5], 1.95 µM; in [6] it was 1.61 µM. For the same compound, the GI50 in assay [7] was 1.57 µM; in assay [8], 1.91 µM; in assay [9] it was 1.74 µM; in [10] it was 1.92 µM. Also, the TGI in assay [1] was determined as 3.28 µM; in assay [2] it was 3.1 µM; in [3], 3.12 µM; in [4] it was 3.47 µM; in [5] it was 5.13 µM; in assay [6], 3.1 µM. The TGI was 3.05 µM in [7], 3.52 µM in [8], 3.51 µM in assay [9] and 3.42 µM in assay [10].

In the case of `Cc1cc(=O)[nH]c(N/N=C/c2cc(Br)ccc2O)n1`, the GI50 in assay [1] is 1.84 µM; in [2] it was 1.82 µM; in assay [3], 0.606 µM; in assay [4], 0.481 µM; in assay [5] it was 0.383 µM; in assay [6] it was 5.07 µM. Further, the GI50 in [7] was 3.35 µM; in assay [8] it was 4.55 µM; in assay [9], 3.56 µM; in [10], 0.383 µM. Besides, the TGI was more than 100 µM in [1]; 7.67 µM in assay [2]; more than 100 µM in [3]; more than 100 µM in assay [4]; 33.8 µM in assay [5]; more than 100 µM in assay [6]. Also, the TGI was more than 100 µM in assay [7], more than 100 µM in assay [8], more than 100 µM in assay [9] and 9.12 µM in assay [10].

With `Cc1ccc(NC(=O)c2ccc(CN3CCN(C)CC3)cc2)cc1Nc1nccc(-c2cccnc2)n1`, the GI50 in assay [1] is 25.9 µM; in assay [2], 26.6 µM; in assay [3] it was 16.2 µM; in assay [4], 15 µM; in [5], 18.6 µM; in [6], 2.08 µM. Further, the GI50 was 14.2 µM in [7], 15.1 µM in assay [8], 36.1 µM in assay [9] and 17.1 µM in assay [10]. In addition, the TGI in [1] was determined as 89.3 µM; in assay [2], 92.1 µM; in assay [3], 80.5 µM; in assay [4], 38.2 µM; in [5], 65.3 µM; in [6], 39.5 µM. The TGI was 33.3 µM in [7], 29.6 µM in assay [8], more than 100 µM in assay [9] and 38.5 µM in assay [10].

In the case of `CC1(C)N=C(N)N=C(N)N1c1ccc(CCCCc2ccccc2)c(Cl)c1`, the GI50 in assay [1] is less than 0.01 µM; in [2], 0.294 µM; in assay [3], 0.522 µM; in [4], 0.0543 µM; in assay [5] it was 0.0755 µM; in [6] it was 0.331 µM. The GI50 in assay [7] is 0.334 µM; in [8], 0.53 µM; in assay [9], 0.0746 µM; in assay [10], 0.247 µM. Moreover, the TGI in assay [1] came out at 15 µM; in assay [2], 25.1 µM; in assay [3], 35.5 µM; in assay [4], 10.2 µM; in assay [5], 9.66 µM; in assay [6] it was 22.4 µM. In addition, the TGI in assay [7] was 7.79 µM; in assay [8], 13.4 µM; in assay [9] it was more than 35.9 µM; in assay [10], 5.26 µM.

Consider `O=C(c1ccco1)c1nc2cc(C(F)(F)F)ccc2nc1C(F)(F)F`, for which the GI50 is more than 100 µM in assay [1]; more than 100 µM in assay [2]; more than 100 µM in assay [3]; more than 100 µM in assay [4]; 56.4 µM in assay [5]; more than 100 µM in [6]. Further, the GI50 in assay [7], in [8], in assay [9] and in [10] was more than 100 µM each time. For the same compound, the TGI in assay [1], in assay [2], in [3], in [4], in assay [5] and in assay [6] was more than 100 µM in each case. For the same compound, the TGI in [7], in [8], in [9] and in assay [10] was more than 100 µM in each case.

As for `COc1ccc(C(=O)Nc2ncc(Cc3cccc(Cl)c3)s2)cc1OC`, the GI50 in assay [1] was 0.631 µM; in [2] it was 0.693 µM; in assay [3] it was 0.0631 µM; in assay [4], 2.51 µM; in assay [5] it was 3.68 µM; in assay [6] it was 1.25 µM. Besides, the GI50 in assay [7] was 1.07 µM; in [8], 0.119 µM; in [9], 0.689 µM; in assay [10] it was 0.566 µM. The TGI in assay [1], in assay [2], in [3], in [4], in assay [5] and in assay [6] was more than 100 µM each time. The TGI was 6.54 µM in [7], more than 100 µM in [8], more than 100 µM in assay [9] and more than 100 µM in assay [10].

As for `CC[C@@H]1[C@@H](C)O[C@@](O)([C@@H](C)[C@H](O)[C@H](C)[C@H]2OC(=O)/C=C/C=C/[C@H](C)[C@@H]([C@@H](C)[C@@H](O)[C@H](C)[C@@]3(O)C[C@@H](O[C@H]4C[C@@H](O)[C@H](O)C(C)O4)[C@H](CC)[C@@H](C)O3)OC(=O)/C=C/C=C/[C@@H]2C)C[C@H]1O[C@@H]1C[C@@H](O)[C@H](O)C(C)O1` (stereo partly specified), the GI50 in assay [1] was 0.112 µM; in assay [2], 0.11 µM; in [3], 0.459 µM; in assay [4] it was 0.0655 µM; in assay [5] it was 0.0741 µM; in assay [6], 0.0839 µM. The GI50 in assay [7] is 0.0521 µM; in [8] it was 0.0885 µM; in assay [9] it was 0.0731 µM. Also, the TGI in assay [1] was 0.344 µM; in assay [2], 0.468 µM; in [3], 0.924 µM; in assay [4] it was 0.149 µM; in assay [5], 0.192 µM; in assay [6], 0.316 µM. Also, the TGI in [7] turned out to be 0.119 µM; in assay [8], 0.258 µM; in assay [9], 0.212 µM.

On to `O=[N+]([O-])c1ccc(C2CC(c3ccccc3Cl)=Nc3ccccc3S2)cc1` (stereo unspecified), for which the TGI in assay [1] is 33.4 µM; in assay [2] it was 31 µM; in assay [3] it was 10.9 µM; in [4] it was 10.8 µM; in assay [5], 24.5 µM; in assay [6], 62.7 µM. For the same compound, the results for the TGI in [7], in assay [8] and in assay [10] were 12.6 µM, 22.7 µM and 35.5 µM, respectively.

On to `CC[C@H]1CN2CCc3cc(OC)c(OC)cc3C2C[C@@H]1CC1NCCc2cc(OC)c(OC)cc21` (stereo partly specified), for which the TGI was determined as 0.0523 µM in [1]; 0.136 µM in [2]; 2.02 µM in assay [3]; 0.0916 µM in assay [4]; 0.0481 µM in assay [5]; 0.645 µM in [6]. In addition, the TGI in [7] stood at 0.131 µM; in assay [8], 0.119 µM; in assay [10], 0.258 µM.

On to `C#CCNC(=O)N(CC#C)N=O`, for which the TGI in assay [2], in assay [3], in assay [4], in assay [5], in assay [6] and in assay [7] was more than 100 µM throughout. The TGI in assay [8], in [9] and in assay [10] was more than 100 µM each time.

Regarding `NCCCNc1nc2ccccc2c2c(=O)c3cc(F)cc(F)c3sc12`, the GI50 in assay [2] is 1.6 µM; in assay [3], 1.6 µM; in [4], 1.78 µM; in assay [5] it was 1.75 µM; in assay [6], 1.6 µM; in assay [7], 1.42 µM. For the same compound, the GI50 in assay [8] was 1.86 µM; in [9], 1.7 µM; in assay [10], 1.88 µM. Further, the TGI is 3.12 µM in assay [2]; 3.14 µM in assay [3]; 3.36 µM in assay [4]; 3.61 µM in assay [5]; 3.03 µM in assay [6]; 2.97 µM in [7]. For the same compound, the TGI in assay [8] was determined as 3.39 µM; in [9] it was 3.23 µM; in [10] it was 4.18 µM.

Take `COC1OC(CO)C(O)C(OC(C)=O)C1NC(=O)N(CCCl)N=O` (stereo unspecified): the TGI in assay [1], in assay [2], in [4], in assay [5], in assay [6] and in assay [7] was more than 100 µM in each case. In addition, the TGI in assay [8], in [9] and in assay [10] was more than 100 µM in each case.

As for `O=C1CC(c2c(-c3ccccc3)[nH]c3ccccc23)C(=O)N1` (stereo unspecified), the TGI in assay [1], in assay [2], in [3], in assay [4], in assay [5] and in assay [6] was more than 100 µM each time. Moreover, the TGI in assay [7], in assay [8] and in assay [10] was more than 100 µM each time.
